Measurements as given in ChEMBL document CHEMBL1201861, “Genomics of Drug Sensitity in Cancer screening data, Wellcome Trust Sanger Institute”.

Assays:
Test in all cases: cells
Details in all cases: Homo sapiens
Ca9-22 = type: functional, cell-based;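 note: growth inhibition of Ca9-22 cells, read out with a cell viability assay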
Description: SANGER: Inhibition of human Ca9-22 cell growth in a cell viability assay.

DMS-273 = type: functional, cell-based
Description: SANGER: Inhibition of human DMS-273 cell growth in a cell viability assay.

DOK = type: functional, cell-based;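 note: cell viability assay read-out, values reflect inhibition of cell growth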
Description: SANGER: Inhibition of human DOK cell growth in a cell viability assay.

ESS-1 = type: functional, cell-based;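 note: growth inhibition of human ESS-1 cells, read out by a cell viability assay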
Description: SANGER: Inhibition of human ESS-1 cell growth in a cell viability assay.

GCT = type: functional, cell-based;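 note: GCT cell line proliferation inhibition, read out with a cell viability assay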
Description: SANGER: Inhibition of human GCT cell growth in a cell viability assay.

HCC1806 = type: functional, cell-based;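 note: growth inhibition of the cancer cell line, determined with a cell viability assay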
Description: SANGER: Inhibition of human HCC1806 cell growth in a cell viability assay.

HEC-1 = type: functional, cell-based;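 note: growth inhibition of the cell line, read out with a cell viability assay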
Description: SANGER: Inhibition of human HEC-1 cell growth in a cell viability assay.

HGC-27 = type: functional, cell-based;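 note: growth inhibition of human HGC-27 cells, read out in a cell viability assay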
Description: SANGER: Inhibition of human HGC-27 cell growth in a cell viability assay.

HO-1-N-1 = type: functional, cell-based;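 note: growth inhibition of human HO-1-N-1 cells, read out with a cell viability assay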
Description: SANGER: Inhibition of human HO-1-N-1 cell growth in a cell viability assay.

HPAF-II = type: functional, cell-based;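 note: growth inhibition of HPAF-II cells, read out with a cell viability assay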
Description: SANGER: Inhibition of human HPAF-II cell growth in a cell viability assay.

HT-29 = type: functional, cell-based;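 note: growth inhibition of human HT-29 cells, read out by a cell viability assay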
Description: SANGER: Inhibition of human HT-29 cell growth in a cell viability assay.

HuO-3N1 = type: functional, cell-based;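 note: cell viability readout used to measure how strongly compounds suppress proliferation of human HuO-3N1 cells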
Description: SANGER: Inhibition of human HuO-3N1 cell growth in a cell viability assay.

HuP-T3 = type: functional, cell-based;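 note: HuP-T3 cell growth inhibition, read out with a cell viability assay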
Description: SANGER: Inhibition of human HuP-T3 cell growth in a cell viability assay.

KP-N-YN = type: functional, cell-based;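 note: growth inhibition of KP-N-YN cells, read out with a cell viability assay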
Description: SANGER: Inhibition of human KP-N-YN cell growth in a cell viability assay.

LCLC-103H cell line = type: functional, cell-based
Description: SANGER: Inhibition of human LCLC-103H cell growth in a cell viability assay.

LCLC-97TM1 = type: functional, cell-based;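 note: cell viability assay measuring growth inhibition of human LCLC-97TM1 cells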
Description: SANGER: Inhibition of human LCLC-97TM1 cell growth in a cell viability assay.

LN-405 = type: functional, cell-based
Description: SANGER: Inhibition of human LN-405 cell growth in a cell viability assay.

MC-IXC = type: functional, cell-based;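 note: growth inhibition of MC-IXC cells, read out with a cell viability assay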
Description: SANGER: Inhibition of human MC-IXC cell growth in a cell viability assay.

MCF7 = type: functional, cell-based;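 note: growth inhibition of human MCF7 cells, read out with a cell viability assay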
Description: SANGER: Inhibition of human MCF7 cell growth in a cell viability assay.

MDA-MB-157 = type: functional, cell-based
Description: SANGER: Inhibition of human MDA-MB-157 cell growth in a cell viability assay.

MDA-MB-361 = type: functional, cell-based
MEL-HO = type: functional, cell-based
Description: SANGER: Inhibition of human MEL-HO cell growth in a cell viability assay.

MeWo = type: functional, cell-based;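 note: growth inhibition of MeWo cells, determined by a cell viability readout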
Description: SANGER: Inhibition of human Mewo cell growth in a cell viability assay.

NCI-H2052 = type: functional, cell-based;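 note: growth inhibition of NCI-H2052 cells, read out with a cell viability assay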
Description: SANGER: Inhibition of human NCI-H2052 cell growth in a cell viability assay.

NCI-H2228 = type: functional, cell-based;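 note: growth inhibition of human NCI-H2228 cells, read out by a cell viability assay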
Description: SANGER: Inhibition of human NCI-H2228 cell growth in a cell viability assay.

NCI-H292 = type: functional, cell-based;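 note: growth inhibition of NCI-H292 cells, read out with a cell viability assay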
Description: SANGER: Inhibition of human NCI-H292 cell growth in a cell viability assay.

NCI-H460 = type: functional, cell-based;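 note: cell viability assay scoring growth inhibition of human NCI-H460 cells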
Description: SANGER: Inhibition of human NCI-H460 cell growth in a cell viability assay.

NCI-H810 = type: functional, cell-based;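 note: IC50 reflects inhibition of cancer cell line growth, read out with a cell viability assay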
Description: SANGER: Inhibition of human NCI-H810 cell growth in a cell viability assay.

OVCAR-3 = type: functional, cell-based;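 note: growth inhibition of human OVCAR-3 cells, determined by a cell viability assay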
Description: SANGER: Inhibition of human OVCAR-3 cell growth in a cell viability assay.

RO82-W-1 = type: functional, cell-based;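 note: growth inhibition of human RO82-W-1 cells, measured with a cell viability assay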
Description: SANGER: Inhibition of human RO82-W-1 cell growth in a cell viability assay.

S-117 = type: functional, cell-based
Description: SANGER: Inhibition of human S-117 cell growth in a cell viability assay.

SAS = type: functional, cell-based;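 note: growth inhibition of SAS cells, read out with a cell viability assay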
Description: SANGER: Inhibition of human SAS cell growth in a cell viability assay.

SCC-4 = type: functional, cell-based;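 note: growth inhibition of human SCC-4 cells, read out as cell viability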
Description: SANGER: Inhibition of human SCC-4 cell growth in a cell viability assay.

SK-HEP1 = type: functional, cell-based, SK-HEP-1;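 note: cell viability readout used to quantify reduction in proliferation of human SK-HEP-1 cells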
Description: SANGER: Inhibition of human SK-HEP-1 cell growth in a cell viability assay.

SNU-423 = type: functional, cell-based
Description: SANGER: Inhibition of human SNU-423 cell growth in a cell viability assay.

SW1417 = type: functional, cell-based;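 note: growth inhibition of human SW1417 cells, read out with a cell viability assay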
Description: SANGER: Inhibition of human SW1417 cell growth in a cell viability assay.

SW48 = type: functional, cell-based;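 note: growth inhibition of SW48 cells, read out with a cell viability assay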
Description: SANGER: Inhibition of human SW48 cell growth in a cell viability assay.

SW626 = type: functional, cell-based;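 note: growth inhibition of SW626 cells, measured with a cell viability assay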
Description: SANGER: Inhibition of human SW626 cell growth in a cell viability assay.

647-V = type: functional, cell-based;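 note: growth inhibition of 647-V cells, read out with a cell viability assay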
Description: SANGER: Inhibition of human 647-V cell growth in a cell viability assay.

786-0 = type: functional, cell-based
Description: SANGER: Inhibition of human 786-0 cell growth in a cell viability assay.

8505C = type: functional, cell-based
Description: SANGER: Inhibition of human 8505C cell growth in a cell viability assay.

A 172 = type: functional, cell-based;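 note: growth inhibition of A172 cells, measured with a cell viability readout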
Description: SANGER: Inhibition of human A172 cell growth in a cell viability assay.

A-375 = type: functional, cell-based;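 note: growth inhibition of A375 cells, read out with a cell viability assay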
Description: SANGER: Inhibition of human A375 cell growth in a cell viability assay.

ACHN = type: functional, cell-based;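 note: cell viability read-out used to gauge how strongly growth of human ACHN cells is suppressed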
Description: SANGER: Inhibition of human ACHN cell growth in a cell viability assay.

BEN = type: functional, cell-based;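 note: growth inhibition of the BEN cell line, read out with a cell viability assay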
Description: SANGER: Inhibition of human BEN cell growth in a cell viability assay.

BPH-1 = type: functional, cell-based;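 note: cell viability assay measuring growth inhibition of human BPH-1 cells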
Description: SANGER: Inhibition of human BPH-1 cell growth in a cell viability assay.

BT-20 = type: functional, cell-based;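 note: cell viability assay measuring suppression of growth in human BT-20 cells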
Description: SANGER: Inhibition of human BT-20 cell growth in a cell viability assay.

CAL-39 = type: functional, cell-based;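 note: cell viability assay measuring growth inhibition of CAL-39 cells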
Description: SANGER: Inhibition of human CAL-39 cell growth in a cell viability assay.

CAL-54 = type: functional, cell-based;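 note: growth inhibition of CAL-54 cells, read out by a viability measurement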
Description: SANGER: Inhibition of human CAL-54 cell growth in a cell viability assay.

U-118-MG = type: functional, cell-based
Description: SANGER: Inhibition of human U-118-MG cell growth in a cell viability assay.

YAPC = type: functional, cell-based;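 note: growth inhibition of YAPC cells, measured with a cell viability assay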
Description: SANGER: Inhibition of human YAPC cell growth in a cell viability assay.

COLO-678 = type: functional, cell-based
Description: SANGER: Inhibition of human COLO-678 cell growth in a cell viability assay.

Question: What does the source list for NC(=O)c1ncn([C@@H]2O[C@H](COP(=O)(O)O)[C@@H](O)[C@H]2O)c1N?
Answer: IC50 (Ca9-22): 1260 µM; IC50 (DMS-273): > 2000 µM; IC50 (DOK): 657 µM; IC50 (ESS-1): > 2000 µM; IC50 (GCT): 1390 µM; IC50 (HCC1806): 361 µM; IC50 (HEC-1): > 2000 µM; IC50 (HGC-27): 1320 µM; IC50 (HO-1-N-1): 793 µM; IC50 (HPAF-II): > 2000 µM; IC50 (HT-29): > 2000 µM; IC50 (HuO-3N1): 89.4 µM; IC50 (HuP-T3): 1350 µM; IC50 (KP-N-YN): > 2000 µM; IC50 (LCLC-103H cell line): 1370 µM; IC50 (LCLC-97TM1): 917 µM; IC50 (LN-405): > 2000 µM; IC50 (MC-IXC): 1780 µM; IC50 (MCF7): 901 µM; IC50 (MDA-MB-157): 1210 µM; IC50 (MDA-MB-361): 1310 µM; IC50 (MEL-HO): 397 µM; IC50 (MeWo): > 2000 µM; IC50 (NCI-H2052): 1490 µM; IC50 (NCI-H2228): 1950 µM; IC50 (NCI-H292): > 2000 µM; IC50 (NCI-H460): 1360 µM; IC50 (NCI-H810): > 2000 µM; IC50 (OVCAR-3): > 2000 µM; IC50 (RO82-W-1): > 2000 µM; IC50 (S-117): > 2000 µM; IC50 (SAS): 746 µM; IC50 (SCC-4): 1230 µM; IC50 (SK-HEP1): 920 µM; IC50 (SNU-423): 1220 µM; IC50 (SW1417): > 2000 µM; IC50 (SW48): 932 µM; IC50 (SW626): > 2000 µM; IC50 (647-V): > 2000 µM; IC50 (786-0): 1080 µM; IC50 (8505C): > 2000 µM; IC50 (A 172): > 2000 µM; IC50 (A-375): > 2000 µM; IC50 (ACHN): 1210 µM; IC50 (BEN): > 2000 µM; IC50 (BPH-1): 1560 µM; IC50 (BT-20): 1400 µM; IC50 (CAL-39): > 2000 µM; IC50 (CAL-54): > 2000 µM; IC50 (U-118-MG): 1430 µM; IC50 (YAPC): > 2000 µM; IC50 (COLO-678): > 2000 µM
